Assay results reported in patent US20230054857A1, “FLAVONOID COMPOSITIONS AND RELATED USES” (Firmenich SA, priority 2020, published 2023).
One block for each compound: values may come before it.

Assays:
Type in all cases: physicochemical
[1] = Stability of supersaturated naringenin solution (60 ppm): crystallization onset and final concentration
Experimental: To assess stability performance, the solution concentration of rhoifolin was determined over time. At specific time points 4 g of the solution were sampled, filtered and mixed with 1 g of acetonitrile. The solution was injected into a Vanquish UHPLC from Thermo Scientific coupled with a UV detector. The column was an Accucore Vanquish C18+(1.5 μm, 2.1×100 mm), eluted with a mixture of acetonitrile and water at 0.3 mL/min. The elution protocol was as follows: 5% acetonitrile (3 minutes), followed by a gradient from 5% to 80% of acetonitrile in 10 minutes. The corresponding peak of Rhoifolin was integrated, and the concentration was calculated based on a previously established calibration curve. The onset of crystallization is expressed as the point where the solution concentration passes below 95% of its initial value of 100%. The value was obtained by algorithmic curve fitting. […] In this example, and throughout “d” refers to days. Aqueous solutions of Berry extract were prepared at a concentration of 25 ppm, 50 ppm, 75 ppm, and 100 ppm by dissolving dry Berry extract in 99 g of buffer solution (citrate buffer, 100 mM, pH 2.8, 0.2% sodium benzoate). Then 1 gram of stock solution of naringenin in PG at 6000 ppm was added and mixed quickly with the aqueous phase. The samples were stored at 8° C., and aliquots were removed over the course of 40 days. A control solution of naringenin without Berry extract was also prepared. […] Aqueous solutions of Berry extract were prepared at a concentration of 100 ppm by dissolving dry Berry extract in 99 g of buffer solution (citrate buffer, 100 mM, pH 2.8, 0.2% sodium benzoate) with various additional additives. Then 1 gram of stock solution of naringenin in PG at 6000 ppm was added and mixed quickly with the aqueous phase. The samples were stored at 8° C., and aliquots were removed over the course of five months. A control solution of naringenin without Berry extract or additional additive was also prepared. A solution with Berry extract, but no additional additive was also prepared. The concentration of the additional additives is 100 ppm in each case. […] Saponin is Quillaja P (Firmenich SA). Aqueous solutions of black rice extracts were prepared at a concentration of 100 ppm by dissolving dry black rice extract in 99 g of buffer solution (citrate buffer, 100 mM, pH 2.8, 0.2% sodium benzoate) with various additional additives. Then 1 gram of stock solution of naringenin in PG at 6000 ppm was added and mixed quickly with the aqueous phase. The samples were stored at 8° C., and aliquots were removed over the course of five months. A control solution of naringenin without black rice extract or additional additive was also prepared. A solution with black rice extract, but no additional additive was also prepared. The concentration of the additional additives is 100 ppm in each case. […] Saponin is Quillaja P (Firmenich SA). Aqueous solutions were prepared in 99 gram of buffer solution (citrate buffer, 100 mM, pH 2.8, 0.2% sodium benzoate) with various additives. Then 1 gram of stock solution of naringenin in PG at 6000 ppm was added and mixed quickly with the aqueous phase. The samples were stored at 8° C., and aliquots were removed over the course of 5 months. A control solution of naringenin without additive was prepared. The concentration of the additives is 100 ppm in each case. […] Saponin is Quillaja P (Firmenich SA). Aqueous solutions of Berry extract were prepared at a concentration of 25 ppm by dissolving dry Berry extract in 99 g of buffer solution (citrate buffer, 100 mM, pH 2.8, 0.2% sodium benzoate) with various amounts of added saponin. Then 1 gram of stock solution of naringenin in PG at 6000 ppm was added and mixed quickly with the aqueous phase. The samples were stored at 8° C., and aliquots were removed over the course of five months. A control solution of naringenin without Berry extract or additional additive was also prepared. A solution with Berry extract, but no additional additive was also prepared. […]

[2] = Stability of supersaturated phloretin solution (60 ppm): crystallization onset and final concentration
Experimental: To assess stability performance, the solution concentration of rhoifolin was determined over time. At specific time points 4 g of the solution were sampled, filtered and mixed with 1 g of acetonitrile. The solution was injected into a Vanquish UHPLC from Thermo Scientific coupled with a UV detector. The column was an Accucore Vanquish C18+(1.5 μm, 2.1×100 mm), eluted with a mixture of acetonitrile and water at 0.3 mL/min. The elution protocol was as follows: 5% acetonitrile (3 minutes), followed by a gradient from 5% to 80% of acetonitrile in 10 minutes. The corresponding peak of Rhoifolin was integrated, and the concentration was calculated based on a previously established calibration curve. The onset of crystallization is expressed as the point where the solution concentration passes below 95% of its initial value of 100%. The value was obtained by algorithmic curve fitting. […] In this example, and throughout “d” refers to days. Aqueous solutions of Berry extract were prepared at a concentration of 25 ppm, 50 ppm, 75 ppm, and 100 ppm by dissolving dry Berry extract in 99 g of buffer solution (citrate buffer, 100 mM, pH 2.8, 0.2% sodium benzoate). Then 1 gram of stock solution of phloretin in PG at 6000 ppm was added and mixed quickly with the aqueous phase. The samples were stored at 8° C., and aliquots were removed over the course of three months. A control solution of phloretin without Berry extract was also prepared. […] Aqueous solutions were prepared in 99 gram of buffer solution (citrate buffer, 100 mM, pH 2.8, 0.2% sodium benzoate) with saponin. Then 1 gram of stock solution of phloretin in PG at 6000 ppm was added and mixed quickly with the aqueous phase. The samples stored at 8° C., and aliquots were removed over the course of 5 months. A control solution of phloretin without saponin was prepared. The concentration of saponin was 100 ppm. […] Saponin is Quillaja P (Firmenich SA).

[3] = Stability of supersaturated rhoifolin solution (20 ppm): solution concentration over time by UHPLC, onset of crystallization; settings: for 50% / Fin. Conc. (ppm) / Onset / 50% (d), days for 50% crystallization of rhoifolin: room temperature, 40 days
Experimental: Aqueous solutions of various anthocyanin extracts were prepared at concentrations of 100 ppm, 200 ppm, and 300 ppm by dissolving dry anthocyanin extract in 99 g of buffer solution (citrate buffer, 100 mM, pH 2.8, 0.2% sodium benzoate). Then 1 gram of stock solution of rhoifolin in propylene glycol (PG) at 2000 ppm was added and mixed quickly with the aqueous phase. The samples were left at room temperature, and aliquots were removed over the course of three months. A control solution of rhoifolin without anthocyanin was also prepared.
To assess stability performance, the solution concentration of rhoifolin was determined over time. At specific time points 4 g of the solution were sampled, filtered and mixed with 1 g of acetonitrile. The solution was injected into a Vanquish UHPLC from Thermo Scientific coupled with a UV detector. The column was an Accucore Vanquish C18+(1.5 μm, 2.1×100 mm), eluted with a mixture of acetonitrile and water at 0.3 mL/min. The elution protocol was as follows: 5% acetonitrile (3 minutes), followed by a gradient from 5% to 80% of acetonitrile in 10 minutes. The corresponding peak of Rhoifolin was integrated, and the concentration was calculated based on a previously established calibration curve. The onset of crystallization is expressed as the point where the solution concentration passes below 95% of its initial value of 100%. The value was obtained by algorithmic curve fitting. […] In this example, and throughout “d” refers to days.
Aqueous solutions of black rice extract were prepared at a concentration of 100 ppm by dissolving dry black rice extract in 99 g of buffer solution (citrate buffer, 100 mM, pH 2.8, 0.2% sodium benzoate) with various additional additives. Then 1 gram of stock solution of rhoifolin in PG at 2000 ppm was added and mixed quickly with the aqueous phase. The samples were left at room temperature, and aliquots were removed over the course of 40 days. A control solution of rhoifolin without black rice or additional additives was also prepared. A solution with black rice, but no additional additive was also prepared. The concentration of the additional additives is 100 ppm in each case. […] Saponin is Quillaja P (Firmenich SA).
Aqueous solutions were prepared in 99 gram of buffer solution (citrate buffer, 100 mM, pH 2.8, 0.2% sodium benzoate) with various additives. Then 1 gram of stock solution of rhoifolin in PG at 2000 ppm was added and mixed quickly with the aqueous phase. The samples were left at room temperature, and aliquots were removed over the course of 40 days. A control solution of rhoifolin without additive was prepared. The concentration of the additives is 100 ppm in each case. […] Saponin is Quillaja P (Firmenich SA).

[4] = Example 4 control: naringenin 60 ppm without Berry extract, pH 2.8, 8° C., 40 days
[5] = Example 5 control: naringenin 60 ppm without Berry extract or additive, 8° C., five months
[6] = Example 6 control: naringenin 60 ppm without black rice extract or additive, 8° C., five months
[7] = Example 7 control: naringenin 60 ppm without additive, 8° C., 5 months
[8] = Example 8 control: naringenin 60 ppm without Berry extract or additive, 8° C., five months
[9] = Example 9 control: naringenin 60 ppm without saponin, 8° C., five months
[10] = Example 10 control: phloretin 60 ppm without Berry extract, pH 2.8, 8° C., three months
[11] = Example 11 control: phloretin 60 ppm without saponin, 8° C., 5 months
[12] = rhoifolin 20 ppm + 100 ppm additive alone
[13] = rhoifolin 20 ppm + 100 ppm black rice extract + 100 ppm additive
[14] = naringenin 60 ppm + 100 ppm Berry extract + 100 ppm additive, 8° C., five months
[15] = naringenin 60 ppm + 100 ppm additive alone, 8° C., 5 months
[16] = naringenin 60 ppm + 100 ppm black rice extract + 100 ppm additive, 8° C., five months
[17] = Example 2 control: rhoifolin 20 ppm without black rice extract or additive
[18] = Example 3 control: rhoifolin 20 ppm without additive
[19] = control: rhoifolin 20 ppm without extract, pH 2.8, room temperature

- Fin. Conc. (ppm) [1, 4]: 24.6 ppm
- Onset [1, 4]: 0.3 days
- Fin. Conc. (ppm) [1, 5]: 24.6 ppm
- Onset [1, 5]: 0.3 days
- Fin. Conc. (ppm) [1, 6]: 24.6 ppm
- Onset [1, 6]: 0.3 days
- Fin. Conc. (ppm) [1, 7]: 24.6 ppm
- Onset [1, 7]: 0.3 days
- Fin. Conc. (ppm) [1, 8]: 24.6 ppm
- Onset [1, 8]: 0.3 days
- Fin. Conc. (ppm) [1, 9]: 24.6 ppm
- Onset [1, 9]: 0.3 days
Structure (SMILES): O=C1C[C@@H](c2ccc(O)cc2)Oc2cc(O)cc(O)c21 [Naringenin, naringenin]

- Fin. Conc. (ppm) [2, 10]: 33.8 ppm
- Onset [2, 10]: 13.6 days
- Fin. Conc. (ppm) [2, 11]: 33.8 ppm
- Onset [2, 11]: 13.6 days
Structure (SMILES): O=C(CCc1ccc(O)cc1)c1c(O)cc(O)cc1O [Phloretin, phloretin]

- 50% [3, 12]: 13.6 days
- Fin. Conc. (ppm) [3, 12]: 4.04 ppm
- Onset [3, 12]: 7.5 days
- 50% (d), days for 50% crystallization of rhoifolin [3, 13]: 18.8 days
- Fin. Conc. (ppm) [3, 13]: 5.96 ppm
- Onset [3, 13]: 10.8 days
- Fin. Conc. (ppm) [1, 14]: 34.1 ppm
- Onset [1, 14]: 15.8 days
- Fin. Conc. (ppm) [1, 15]: 31.0 ppm
- Onset [1, 15]: 7.5 days
- Fin. Conc. (ppm) [1, 16]: 35.4 ppm
- Onset [1, 16]: 18.3 days
Structure (SMILES): C=C1C[C@@]23CC[C@H]4[C@@](C)(CCC[C@@]4(C)C(=O)O[C@@H]4O[C@H](CO)[C@@H](O)[C@H](O)[C@H]4O)[C@@H]2CC[C@]1(O[C@@H]1O[C@H](CO)[C@@H](O)[C@H](O[C@@H]2O[C@H](CO)[C@@H](O)[C@H](O)[C@H]2O)[C@H]1O[C@@H]1O[C@H](CO)[C@@H](O)[C@H](O)[C@H]1O)C3 [Rebaudioside A, reference compound]

- 50% (d), days for 50% crystallization of rhoifolin [3, 17]: 8.2 days
- Fin. Conc. (ppm) [3, 17]: 3.32 ppm
- Onset [3, 17]: 4.1 days
- 50% [3, 18]: 8.2 days
- Fin. Conc. (ppm) [3, 18]: 3.32 ppm
- Onset [3, 18]: 4.1 days
- Onset (d) of crystallization ([3]; control: rhoifolin 20 ppm without anthocyanin extract, citrate buffer pH 2.8, room temperature): 4.1 days
- 50% Rem (d), days when only 50% of initial rhoifolin remained in solution [3, 19]: 8.2 days
- Fin. Conc. (ppm) of rhoifolin in solution [3, 19]: 3.3 ppm
Structure (SMILES): C[C@@H]1O[C@@H](O[C@H]2[C@H](Oc3cc(O)c4c(=O)cc(-c5ccc(O)cc5)oc4c3)O[C@H](CO)[C@@H](O)[C@@H]2O)[C@H](O)[C@H](O)[C@H]1O [Rhoifolin, rhoifolin]
